The test concerns the target PAD2 (peptidylarginine deiminase 2) (Homo sapiens, UniProt Q9Y2J8). In kind it is biochemical.

Structures are written as SMILES.

Chain of PAD2 (peptidylarginine deiminase 2) (Q9Y2J8 whole entry): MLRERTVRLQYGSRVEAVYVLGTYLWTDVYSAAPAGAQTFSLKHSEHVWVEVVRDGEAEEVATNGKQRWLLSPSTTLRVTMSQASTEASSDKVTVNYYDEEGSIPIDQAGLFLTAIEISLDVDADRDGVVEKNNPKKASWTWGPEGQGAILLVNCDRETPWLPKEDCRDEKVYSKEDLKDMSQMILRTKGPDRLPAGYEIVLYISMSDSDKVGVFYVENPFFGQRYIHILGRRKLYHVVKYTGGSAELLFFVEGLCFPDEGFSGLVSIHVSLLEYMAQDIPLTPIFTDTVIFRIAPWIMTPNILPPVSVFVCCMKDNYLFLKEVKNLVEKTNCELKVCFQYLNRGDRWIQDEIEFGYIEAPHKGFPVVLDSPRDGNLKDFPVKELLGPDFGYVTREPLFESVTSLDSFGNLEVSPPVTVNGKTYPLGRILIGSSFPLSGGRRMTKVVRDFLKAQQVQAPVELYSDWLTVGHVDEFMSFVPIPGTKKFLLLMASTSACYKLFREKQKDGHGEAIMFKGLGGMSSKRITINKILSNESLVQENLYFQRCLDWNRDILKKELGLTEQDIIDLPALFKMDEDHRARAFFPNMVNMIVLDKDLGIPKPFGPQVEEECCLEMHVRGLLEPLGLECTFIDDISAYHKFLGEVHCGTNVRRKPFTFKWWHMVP

Take `N=C(N)CCl` [2CA, 2-chloroacetamidine]: half-maximal inhibition (IC50) required 14.4 mM. In other words, the millimolar range.

The values above are taken from PMC3597028 (Disease Models & Mechanisms, 2012).
